# Key:
# [1] = Transwell assay for membrane efflux and permeability; format: in vitro ADME, Canine; conditions: dog; MDCK-BCRP or MDCKII-MDR1 transwell, test compound 1 μM, 2 hours at 37° C.
# Excerpt: Compounds described herein were screened for cell membrane permeability and efflux in a transwell assay using Madin-Darby Canine Kidney (MDCK) cells expressing Breast Cancer Resistance Protein (BCRP) or subclone MDCKII cells expressing Multidrug Resistance Protein 1 (MDR1).
# MDCK-BCRP or MDCKII-MDR1 Cells: The Netherlands Cancer Institute, High Glucose Dulbecco's Modified Eagle's Medium (DMEM): Gibco/Thermo Fisher Scientific, Fetal Bovine Serum (FBS): Coming, Hank's Balanced Salt Solution (HBSS) and Trypsin/EDTA: Gibco/Thermo Fisher Scientific, HTS Transwell-96 Well Permeable Supports: Coming Corporation, Millicell Epithelial Volt-Ohm: Millipore, Cellometer® Vision: Nexcelom Bioscience LLC, Infinite 200 PRO microplate reader: Tecan, MTS2/4 orbital shaker: IKA Labortechnik, HEPES/Penicillin/Streptomycin: Solarbio.
# MDCK-BCRP or MDCKII-MDR1 cells were seeded to each of the wells of the transwell plate at a density of 1.6×10^6 cells/mL and the plate was incubated for 4-8 days with medium changes every two days. To perform the drug transport assay, cell monolayers were first washed three times with pre-warmed HBSS and then incubated with gentle shaking (150 rpm) for 30 min at 37° C. Stock solutions of test compounds (e.g., exemplary compounds of Formulas (I), (II), and (III)) and control compounds (e.g., metoprolol, prazosin, and/or imatinib) were prepared in DMSO and adjusted to a working solution using HBSS. The final concentration of test compounds was 1 μM with DMSO; 0.5%. The plates were incubated at 37° C. for 2 hours.
# MYB = assay: Splicing RT-qPCR assay, MYB mRNA canonical junction (CJ) and alternative junction (AJ); format: cell-based, human; conditions: Homo sapiens, gene panel, CJ qPCR, protocol of Example 142; read-out: MYB IC50 (decrease in CJ mRNA levels)
# Outline: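 First, A673 cells adhered 24 h, while K562 cells were plated directly. Next, compounds were added as an 11-point 3-fold series from 10 uM for 24 h. Finally, lysates went to RT-qPCR, with 2^(−ΔΔCt) values converted to percentage response.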
Structure (SMILES),"Papp at 2 h, 1 μM [1] [×10⁻⁶ cm/s]","efflux ratio at 2 h, 1 μM [1]",IC50 (MYB) [µM]
CN(c1ccc(-c2ccc(-c3cn[nH]c3)cn2)nn1)[C@@H]1C[C@H]2CC[C@@H](C1)N2 [Compound 915],< 2,< 1.5,0.1 to 1
COc1nc(-c2ccc(OC3CC(C)(C)NC(C)(C)C3)nn2)ccc1-c1cn[nH]c1 [Compound 917],2 to 6,> 5,0.1 to 1
COc1nc(-c2ccc(OC3CC(C)(C)NC(C)(C)C3)nn2)ccc1-c1cnn(C)c1 [Compound 918],2 to 6,> 5,0.1 to 1
COc1nc(-c2ccc(N(C)C3CC(C)(C)NC(C)(C)C3)nn2)ccc1-c1cn[nH]c1 [Compound 919],< 2,> 5,0.1 to 1
COc1nc(-c2ccc(N(C)C3CC(C)(C)NC(C)(C)C3)nn2)ccc1-c1cnn(C)c1 [Compound 920],2 to 6,> 5,0.1 to 1
CN(c1ccc(-c2ccc(-c3cn[nH]c3)c(F)n2)nn1)[C@@H]1C[C@H]2CC[C@@H](C1)N2 [Compound 922],< 2,> 5,0.1 to 1
CN(c1ccc(-c2ccc(-c3cn[nH]c3)c(C#N)n2)nn1)[C@@H]1C[C@H]2CC[C@@H](C1)N2 [Compound 930],< 2,> 5,0.1 to 1
COc1nc(-c2ccc(N(C)[C@@H]3C[C@H]4CC[C@@H](C3)N4)nn2)cc(F)c1-c1cn[nH]c1 [Compound 931],< 2,> 5,< 0.1
CN(c1ccc(-c2ccc(-c3cn[nH]c3)c(OC3CC3)n2)nn1)[C@@H]1C[C@H]2CC[C@@H](C1)N2 [Compound 939],< 2,> 5,0.1 to 1
COc1cc(-c2ccc(-c3ccc(N(C)[C@@H]4C[C@H]5CC[C@@H](C4)N5)nn3)nc2OC)ncn1 [Compound 954],< 2,> 5,1 to 10
CN(c1ccc(-c2ccc(-c3cn[nH]c3)c(OC(F)F)n2)nn1)[C@@H]1C[C@H]2CC[C@@H](C1)N2 [Compound 955],< 2,> 5,0.1 to 1
COc1nc(-c2ccc(N3CCC(NC(C)(C)C)C3)nn2)ccc1-c1cn[nH]c1 (stereo not drawn) [Compound 956],2 to 6,> 5,0.1 to 1
COc1nc(-c2ccc(N(C)[C@@H]3C[C@H]4CC[C@@H](C3)N4)nn2)ccc1-c1ccnc(O)c1 [Compound 961],< 2,1.5 to 5,0.1 to 1
COc1nc(-c2ccc(O[C@@H]3C[C@H]4CC[C@@H](C3)N4)nn2)ccc1-c1cnc(C)s1 [Compound 962],2 to 6,1.5 to 5,0.1 to 1
COc1nc(-c2ccc(OC3CC(C)(C)NC(C)(C)C3)nn2)cc(F)c1-c1cn[nH]c1 [Compound 965],2 to 6,> 5,0.1 to 1
CCOc1nc(-c2ccc(OC3CC(C)(C)NC(C)(C)C3)nn2)cc(F)c1-c1cn[nH]c1 [Compound 966],2 to 6,> 5,0.1 to 1
CCOc1nc(-c2ccc(OC3CC(C)(C)NC(C)(C)C3)nn2)ccc1-c1cn[nH]c1 [Compound 967],2 to 6,1.5 to 5,0.1 to 1
COc1nc(-c2ccc(OC3CC4CC(F)(F)C(C3)N4)nn2)cc(F)c1-c1cn[nH]c1 (stereo not drawn) [Compound 969],2 to 6,> 5,> 10

# Source: patent publication US20240368163A1, “COMPOUNDS AND METHODS FOR MODULATING SPLICING” (REMIX THERAPEUTICS INC., priority 2021, published 2024)
